The values below come from ChEMBL document CHEMBL1131692, “A study of novel antiallergic agents with eosinophilic infiltration inhibiting action” (Bioorg Med Chem Lett, 1999).

SMILES strings stand for the structures.

This assay is filed under the species Cavia porcellus. The experiment in a line: Evaluated for antihistamine action using guinea pig ilea. The assay is classed as functional. The note with it: read-out: pA2 (converted).
Consider `Cc1cc(OCCCCCCCCCCN2CCN(C(c3ccccc3)c3ccccc3)CC2)c(C)c(C)c1O`, for which the Kb is 0.407 µM.
On to `Cc1cc(OCCCCN2CCN(C(c3ccccc3)c3ccccc3)CC2)c(C)c(C)c1O`, for which the Kb was 0.0776 µM.
`Cc1cc(OCCCN2CCN(C(c3ccccc3)c3ccccc3)CC2)c(C)c(C)c1O`: the Kb is 0.0741 µM.
For `Cc1cc(OCCN2CCN(C(c3ccccc3)c3ccccc3)CC2)c(C)c(C)c1O`, the Kb was 0.117 µM.
To `Cc1cc(OCCCCCN2CCN(C(c3ccccc3)c3ccccc3)CC2)c(C)c(C)c1O` belongs 0.151 µM.
Turning to `Cc1cc(OCCCCCCN2CCN(C(c3ccccc3)c3ccccc3)CC2)c(C)c(C)c1O`, the Kb is 0.155 µM.
In the case of `Cc1cc(OCCCCCCCCN2CCN(C(c3ccccc3)c3ccccc3)CC2)c(C)c(C)c1O`, the Kb is 0.275 µM.
Turning to `O=c1[nH]c2ccccc2n1CCCN1CCN(C(c2ccccc2)c2ccccc2)CC1` [OXATOMIDE], the Kb is 0.0457 µM.
